Source: patent US12569506B2, “Methods of treating osteonecrosis with LLP2A-bisphosphonate compounds” (The Regents of the University of California, priority 2016, dated 2026)
Read-outs that look alike come from different tables or passages of the source.

Tested on: dexamethasone-treated mice
Type: in vivo, BALB/c mice
Details: for Samples with three or more osteonecrosis characteristics (number/total) / Samples with three or more osteonecrosis characteristics (percent): day 90
Experimental: FIG. 7. Prevalence of osteonecrosis in dexamethasone-treated mice. Mice were treated for 90 days with dexamethasone (Dex), 4 mg/l in drinking water or placebo (PL) (fresh water). At day 30, the Dex-treated mice were re-randomized to Dex alone, Dex+250 μg/kg LLP2A-Ale, Dex+500 μg/kg LLP2A-Ale, and Dex+750 μg/kg LLP2A-Ale. The LLP2A-Ale treatments were given on days 30, 45, 60, and 75. All mice were euthanized at day 90. Right and left distal femurs were fixed in 10% neutral buffer formalin and decalcified. The specimens were dehydrated, embedded in paraffin, cut into 5 micron sections and H&E stained. The sections were evaluated for osteonecrosis by bright light microscopy using modified criteria reported by Yang et al., J. Orthop. Res., 27:169-75 (2009)), which defines osteonecrosis by the presence of the five following characteristics: (1) empty lacunae, (2) pyknotic osteocyte nuclei in areas of empty lacunae and necrosis of adjacent bone marrow, (3) presence of excessive fat cells in the bone marrow, (4) cartilage degradation, and (5) presence of fibrin thrombi in the blood vessels. Each GC-treated group and placebo group were assessed for all five osteonecrosis characteristics or the presence of at least three of the five osteonecrosis characteristics described above.
The efficacy of LLP2A-Ale was evaluated over a 90 day study using a mouse model of glucocorticoid-induced osteonecrosis. Seven week-old male mice (BALB/c (n=80, Jackson laboratories, USA) were housed in a sanitary ventilated animal room maintained at 20° C. with a 12-hour light/dark cycle. All animals were handled according to the USDA animal care guidelines with the approval of the UC Davis Committee on Animal Research. The mice were given water and standard commercial rodent chow (22/5 Rodent Diet; Teklad, Madison, WI) ad libitum. The animals were weight randomized to either a placebo group (fresh water) or glucocorticoid only (4 mg/L dexamethasone (Dex) in drinking water) and treated for 90 days. At day 30, the Dex-treated mice were then re-randomized to Dex alone, Dex+250 μg/kg LLP2A-Ale, Dex+500 μg/kg LLP2A-Ale and Dex+750 μg/kg LLP2A-Ale. The LLP2A-Ale treatments were given on days 30, 45, 60 and 75. Additionally, 0.1 mg/kg methotrexate was administered twice weekly by subcutaneous injection from day 1-42 in all groups receiving glucocorticoid.
All the mice were euthanized at day 90. The body weights of all the study animals were assessed each week. If the study animals had 10% loss of body weight compared to the previous week, the dose of dexamethasone was reduced to 2 mg/L, until weight gain was observed. All of the animals were injected with calcein (30 mg/kg) and alizarin red (20 mg/kg) at 7 and 2 days before euthanization.
Both the right and left distal femurs were fixed in 10% neutral buffered formalin and were shaken for 3 days, then decalcified in 5% EDTA until the bones were fully decalcified. The specimens were then processed in ascending concentrations of ethanol and embedded in paraffin. Tissue sections were cut into 5 microns sections, stained with hematoxylin and eosin and evaluated for the presence of osteonecrosis by bright field microscopy at 20× magnification. Experimental methods are also described in Mohan et al., Calif Tissue Int (2016) doi:10.1007/s00223-016-0195-6, which is incorporated herein by reference in its entirety for all purposes. Osteonecrosis was detected using modified criteria reported by Yang el al., (a mouse model for glucocorticoid-induced osteonecrosis: Effect of a steroid holiday. J Orthop Res. 2009; 27:169-75) which defines osteonecrosis as requiring all of the following changes: (1) empty lacunae, (2) pyknotic osteocyte nuclei in areas of empty lacunae and necrosis of adjacent bone marrow, (3) presence of excessive fat cells in the bone marrow, (4) cartilage degradation and (5) presence of fibrin thrombi in the blood vessels. […]

[1] = Dex + LLP2A-Ale 250 μg/kg on days 30, 45, 60, 75
[2] = Dex + LLP2A-Ale 500 μg/kg on days 30, 45, 60, 75
[3] = LLP2A-Ale 750 μg/kg on days 30, 45, 60, 75

SMILES: Cc1ccccc1NC(=O)Nc1ccc(CC(=O)N[C@@H](CCCCNC(=O)/C=C/c2cccnc2)C(=O)N[C@@H](CCCC(=O)O)C(=O)NC2(C(=O)NCCOCCOCCNC(=O)CCC(=O)NCCOCCOCCNC(=O)CCC(=O)N[C@@H](CCCCNC(=O)[C@H](N)CSC3CC(=O)N(CC4CCC(C(=O)NCCCC(O)(P(=O)(O)O)P(=O)(O)O)CC4)C3=O)C(N)=O)CCCCC2)cc1 (stereo partly shown) [LLP2A-Ale]
- Samples with three or more osteonecrosis characteristics (number/total) [1]: 12/16
- Samples with three or more osteonecrosis characteristics (percent) [1]: 75%
- Samples with three or more osteonecrosis characteristics (number/total) [2]: 9/16
- Samples with three or more osteonecrosis characteristics (percent) [2]: 56%
- Number of mice per group showing all five (or at least three) osteonecrosis characteristics (Dex alone vs Dex+LLP2A-Ale groups, day 90 (FIG. 7)): decreased
- Samples with three or more osteonecrosis characteristics (number/total) [3]: 11/16
- Samples with three or more osteonecrosis characteristics (percent) [3]: 69%
